Measurements reported in patent US11827628B2, “Compositions and methods for inhibition of the JAK pathway” (Rigel Pharmaceuticals, Inc., priority 2005, dated 2023).
Where a name gives a salt, the structure may show the parent alone.

System: IL-4 stimulated expression of CD23 in human Ramos B cells (JAK-1 and JAK-3)
Assay: Assay for Ramos B-Cell Line Stimulated with IL-4 (CD23 upregulation, FACS)
Format: cell-based
Conditions: Homo sapiens, Ramos, Ramos B cells stimulated with IL-4, CD23 expression by FACS; read-out: IC50, Example 41
From the text: One means of assaying for such inhibition is detection of the effect of the 2,4-substituted pyrimidinediamine compounds on the upregulation of downstream gene products. In the Ramos/IL4 assay, B-cells are stimulated with the cytokine Interleukin-4 (IL-4) leading to the activation of the JAK/Stat pathway through phosphorylation of the JAK family kinases, JAK1 and JAK3, which in turn phosphorylate and activate the transcription factor Stat-6. […] To study the effect of inhibitors (e.g., the 2,4-substituted pyrimindinediamine compounds described herein) on the JAK1 and JAK3 kinases, human Ramos B cells are stimulated with human IL-4. Twenty to 24 hours post stimulation, cells are stained for upregulation of CD23 and analyzed using flow cytometry (FACS). […] An exemplary assay of this type is described in greater detail in Example 41
B-cells stimulated with cytokine Interleukin-4 (IL-4) activate the JAK/Stat pathway through phosphorylation of the JAK family kinases, JAK-1 and JAK-3, which in turn phosphorylate and activate the transcription factor Stat-6. […] To study the effect of inhibitors on the JAK family kinases, human Ramos B cells are stimulated with human IL-4.
The Ramos B-cell line was acquired from ATCC (ATCC Catalog No. CRL-1596). The cells were cultured in RPMI 1640 (Cellgro, MediaTech, Inc., Herndon, VA, Cat No. 10-040-CM) with 10% fetal bovine serum (FBS), heat inactivated (JRH Biosciences, Inc, Lenexa, Kansas, Cat No. 12106-500M) according to ATCC propagation protocol. Cells were maintained at a density of 3.5×10^5. The day before the experiment, Ramos B-cells were diluted to 3.5×10^5 cells/mL to ensure that they were in a logarithmic growth phase.
Cells were spun down and suspended in RPMI with 5% serum. 5×10^4 cells were used per point in a 96-well tissue culture plate. Cells were pre-incubated with compound or DMSO (Sigma-Aldrich, St. Louis, MO, Cat No. D2650) vehicle control for 1 hour in a 37° C. incubator. Cells were then stimulated with IL-4 (Peprotech Inc., Rocky Hill, NJ, Cat No. 200-04) for a final concentration of 50 units/mL for 20-24 hours. Cells were then spun down and stained with anti-CD23-PE(BD Pharmingen, San Diego, CA, Cat No. 555711) and analyzed by FACS. Detection was performed using a BD LSR I System Flow Cytometer, purchased from Becton Dickinson Biosciences of San Jose, California The IC50 calculated based on the results of this assay are provided in TABLE XII.

Molecule | IC50 [nM]
CNS(=O)(=O)c1ccc(Nc2ncc(F)c(Nc3cc(OC)cc(OC)c3)n2)cc1OC [IX-51, N4-(3,5-Dimethoxyphenyl)-5-fluoro-N2-[4-(N-methyl)aminosulfonyl-3-methoxyphenyl]-2,4-pyrimidinediamine] | 240
COc1ccc(N(C)c2nc(Nc3cc(C)c(Cl)c(S(N)(=O)=O)c3)ncc2F)cc1Cl [VI-21, N2-(3-Aminosulfonyl-4-chloro-5-methylphenyl)-N4-(3-chloro-4-methoxyphenyl)-5-fluoro-N4-methyl-2,4-pyrimidinediamine] | 11300
CCCCNS(=O)(=O)c1cccc(Nc2ncc(F)c(Nc3ccc(F)c(Cl)c3)n2)c1 [VI-97, N2-(3-Butylaminosulfonylphenyl)-N4-(3-chloro-4-fluorophenyl)5-fluoro-2,4-pyrimidinediamine] | 3010
Cc1ccc(Nc2ncc(F)c(Nc3ccc4c(c3)CCC(=O)N4)n2)cc1S(N)(=O)=O [VII-21, N2-(3-Aminosulfonyl-4-methylphenyl)-N4-[3,4-dihydro-(1H)-quinolin-2-one-6-yl]-5-fluoro-2,4-pyrimidinediamine] | 548
Cc1ccc(Nc2ncc(F)c(Nc3ccc4c(C(N)=O)c[nH]c4c3)n2)cc1S(N)(=O)=O [IX-9, N4-[3-(Aminocarbonyl)-1H-indol-6-yl]-N2-(3-aminosulfonyl-4-methylphenyl)-5-fluoro-2,4-pyrimidinediamine] | 8880
NS(=O)(=O)c1cc(Nc2ncc(F)c(Nc3ccc(Cl)c(S(N)(=O)=O)c3)n2)ccc1Cl [VI-115, N2,N4-Bis-(3-aminosulfonyl-4-chlorophenyl)-5-fluoro-2,4-pyrimidinediamine] | 890
Cc1ccc(Nc2ncc(F)c(N[C@@H]3CCN(C(=O)CC#N)C3)n2)cc1S(N)(=O)=O [IX-45, N2-(3-Aminosulfonyl-4-methylphenyl)-N4-[(4R)-1-(2-cyanoacetyl)-pyrrolidin-4-yl)-5-fluoro-2,4-pyrimidinediamine] | 3620
CCN(CC)S(=O)(=O)c1cc(Nc2ncc(F)c(N(C)c3ccc(Cl)c(Cl)c3)n2)ccc1OC [VI-105, N4-(3,4-dichlorophenyl)-N4-methyl-5-fluoro-N2-[3-(N,N-diethyl)aminosulfonyl-4-methoxyphenyl]-2,4-pyrimidinediamine] | 10300

Same assay, conditions: Homo sapiens, Ramos, Ramos B-cell line stimulated with IL-4; CD23 expression by FACS; read-out: IC50, Example 41

Molecule | IC50 [nM]
CNC(=O)COc1ccc(Nc2nc(Nc3ccc(S(N)(=O)=O)cc3)ncc2F)cc1Cl [Compound I-146, N2-(4-Aminosulfonylphenyl)-N4-(3-chloro-4-methylaminocarbonylmethoxyphenyl)-5-fluoro-2,4-pyrimidinediamine] | 364
COc1cc(Nc2nc(Nc3ccc(C)c(S(N)(=O)=O)c3)ncc2F)ccc1OCC(N)=O [Compound I-105, N4-(4-Aminocarbonylmethoxy-3-methoxyphenyl)-N2-(3-aminosulfonyl-4-methylphenyl)-5-fluoro-2,4-pyrimidinediamine] | 1170

Same assay, conditions: Ramos B cells stimulated with IL-4, CD23 expression by FACS; read-out: IC50, Example 41

Molecule | IC50 [nM]
CS(=O)(=O)N1CCN(C(=O)c2ccc(Nc3nc(Nc4cccc(S(N)(=O)=O)c4)ncc3F)cc2)CC1 [IX-29, N2-(3-Aminosulfonylphenyl)-5-fluoro-N4-[4-(1-methanesulfonyl-4-piperizinyl)carbonylphenyl]-2,4-pyrimidinediamine] | 3460
CCNC(=O)NCCc1ccc(Nc2nc(Nc3ccc(C)c(S(N)(=O)=O)c3)ncc2F)cc1 [III-124, N2-(3-aminosulfonyl-4-methyl)phenyl-N4-[4-(2-ethylaminocarbonylamino)ethyl]phenyl-5-fluoro-2,4-pyrimidinediamine] | 295
CN(C)c1ccc2cc(Nc3nc(Nc4cccc(S(N)(=O)=O)c4)ncc3F)ccc2n1 [VII-76, N2-(3-Aminosulfonylphenyl)-N4-(2-N,N′-dimethylamine-quinolin-6-yl)-5-fluoro-2,4-pyrimidinediamine] | 673
Cc1ccc(Nc2ncc(F)c(Nc3ccc4nc(N(C)C)ccc4c3)n2)cc1S(N)(=O)=O [VII-75, N2-(3-Aminosulfonyl-4-methylphenyl)-N4-(2-N,N′-dimethylamine-quinolin-6-yl)-5-fluoro-2,4-pyrimidinediamine] | 544
CN1C(=O)C(C)(C)S(=O)(=O)c2ccc(Nc3nc(Nc4ccc(S(N)(=O)=O)cc4)ncc3F)cc21 [VII-46, N2-(4-Aminosulphonylphenyl)-5-fluoro-N4-(2,2,4-trimethyl-1,1,3-trioxo-benzo[1,4]thiazin-6-yl)-2,4-pyrimidinediamine] | 961

Same assay, conditions: Ramos B cells stimulated with IL-4, CD23 expression by FACS; sodium salt; read-out: IC50, Example 41

Molecule | IC50 [nM]
CCC(=O)NS(=O)(=O)c1cccc(Nc2ncc(F)c(Nc3ccc(CCOC(=O)N(C)C)cc3)n2)c1 [VI-66, N4-{4-[2-(Dimethylaminocarbonyloxy)ethyl]phenyl}-5-fluoro-N2-(3-propionylaminosulfonylphenyl)-2,4-pyrimidinediamine sodium salt] | 6090

Same assay, conditions: Ramos B-cell line stimulated with IL-4; CD23 expression by FACS; read-out: IC50, Example 41

Molecule | IC50 [nM]
COc1cc(Nc2nc(Nc3ccc(C)c(S(N)(=O)=O)c3)ncc2F)ccc1NC(=O)CC#N [Compound I-85, N2-(3-Aminosulfonyl-4-methylphenyl)-5-fluoroN4-[3-methoxy-4-(N-cyanoacetyl)aminophneyl]-2,4-pyrimidinediamine] | 791
COC(=O)CNS(=O)(=O)c1cccc(Nc2ncc(F)c(Nc3ccc(OCc4cc(C)on4)cc3)n2)c1 [Compound I-215, 5-Fluoro-N2-[3-(N-methoxycarbonylmethylene)aminosulfonylphenyl]-N4-[4-(5-methylisoxazol-3-yl)methyleneoxyphenyl]-2,4-pyrimidinediamine] | 976
Cc1ccc(Nc2ncc(F)c(Nc3ccc(N(C)C(=O)CC#N)cc3)n2)cc1S(N)(=O)=O [Compound I-87, N2-(3-Aminosulfonyl-4-methylphenyl)-N4-[4-(N-cyanoacetyl-N-methyl)aminophneyl]-5-fluoro-2,4-pyrimidinediamine] | 1040
CNS(=O)(=O)c1ccc(Nc2ncc(F)c(Nc3ccc(OC(F)(F)F)c(Cl)c3)n2)cc1OC [Compound I-269, 5-fluoro-N2-(4-N-methylaminosulfonyl)-3-methoxyphenyl-N4-(4-trifluoromethoxy-3-chlorophenyl)-2,4-pyrimidinediamine] | 917
Cc1ccc(Nc2nc(Nc3cccc(S(N)(=O)=O)c3)ncc2F)cc1OCC(=O)N1CCOCC1 [Compound I-208, N2-(3-Aminosulfonylphenyl)-5-fluoro-N4-[4-methyl-3-(2-morpholinocarbonylmethyleneoxy)phenyl]-2,4-pyrimidinediamine] | 1400
N2-(3-Aminocarbonyl-5-methylphenyl)-5-fluoro-N2-[4-(1-methylpyrazol-3-yl)amidophenyl)-2,4-pyrimidinediamine [II-19] | 395
CCC(=O)NS(=O)(=O)c1cccc(Nc2ncc(F)c(Nc3ccc(Cc4ccncc4)cc3)n2)c1 [III-68] | 3230
CCC(=O)NS(=O)(=O)c1cc(Nc2ncc(F)c(Nc3ccc(OCc4cc(C)on4)cc3)n2)ccc1C [Compound I-228, 5-Fluoro-N4-[4-(5-methylisoxazol-3-yl)methyleneoxyphenyl]-N2-(4-methyl-3-propionylaminosulfonylphenyl)-2,4-pyrimidinediamine] | 3810
Cc1cc(COc2ccc(N(C)c3nc(Nc4ccc(C)c(S(N)(=O)=O)c4)ncc3F)cc2F)no1 [Compound I-226, N2-(3-Aminosulfonyl-4-methylphenyl)-5-fluoro-N4-[3-fluoro-4-(5-methylisoxazol-3-yl)methyleneoxyphenyl]-N4-methyl-2,4-pyrimidinediamine] | 498
CCC(=O)NCc1ccc(Nc2nc(Nc3ccc(S(N)(=O)=O)cc3)ncc2F)cc1 [III-35, N2-(4-aminosulfonyl)phenyl-N4-(4-ethylcarbonylaminomethyl)phenyl-5-fluoro-2,4-pyrimidinediamine] | 1080
NC(=O)COc1ccc(Nc2nc(Nc3cccc(S(N)(=O)=O)c3)ncc2F)cc1 [Compound I-111, N4-(4-Aminocarbonylmethoxy)phenyl-N2-(3-aminosulfonyl)phenyl-5-fluoro-2,4-pyrimidinediamine] | 890
Cc1nc(COc2ccc(Nc3nc(Nc4cccc(S(=O)(=O)N5CCN(C)CC5)c4)ncc3F)cc2)no1 [Compound I-274, 5-Fluoro-N4-[4-(5-methyl-1,2,4-oxadiazol-3-yl)methoxy]phenyl-N2-[3-(4-methylpiperazin-1-yl)sulfonyl]phenyl-2,4-pyrimidinediamine] | 1170
